According to patent publication US10385024B2, “Compounds and methods for inhibiting NHE-mediated antiport in the treatment of disorders associated with fluid retention or salt overload and gastrointestinal tract disorders” (Ardelyx, Inc., priority 2012, dated 2019):

Legend:
Rat NHE-3 [1] = molecular target: T1, Rat NHE-3 (Rattus norvegicus, UniProt P26433); experiment: Cell-based assay of NHE-3 activity (persistent inhibition, after washout); conditions: OK cells with rat NHE-3 gene, 60 min incubation, recovery initiated 40 min after compound washout
T1 construct: expressed in transfected cells; host or cells: Opossum kidney (OK) cells (ATCC), transfected by electroporation
T1 sequence (P26433 29-831): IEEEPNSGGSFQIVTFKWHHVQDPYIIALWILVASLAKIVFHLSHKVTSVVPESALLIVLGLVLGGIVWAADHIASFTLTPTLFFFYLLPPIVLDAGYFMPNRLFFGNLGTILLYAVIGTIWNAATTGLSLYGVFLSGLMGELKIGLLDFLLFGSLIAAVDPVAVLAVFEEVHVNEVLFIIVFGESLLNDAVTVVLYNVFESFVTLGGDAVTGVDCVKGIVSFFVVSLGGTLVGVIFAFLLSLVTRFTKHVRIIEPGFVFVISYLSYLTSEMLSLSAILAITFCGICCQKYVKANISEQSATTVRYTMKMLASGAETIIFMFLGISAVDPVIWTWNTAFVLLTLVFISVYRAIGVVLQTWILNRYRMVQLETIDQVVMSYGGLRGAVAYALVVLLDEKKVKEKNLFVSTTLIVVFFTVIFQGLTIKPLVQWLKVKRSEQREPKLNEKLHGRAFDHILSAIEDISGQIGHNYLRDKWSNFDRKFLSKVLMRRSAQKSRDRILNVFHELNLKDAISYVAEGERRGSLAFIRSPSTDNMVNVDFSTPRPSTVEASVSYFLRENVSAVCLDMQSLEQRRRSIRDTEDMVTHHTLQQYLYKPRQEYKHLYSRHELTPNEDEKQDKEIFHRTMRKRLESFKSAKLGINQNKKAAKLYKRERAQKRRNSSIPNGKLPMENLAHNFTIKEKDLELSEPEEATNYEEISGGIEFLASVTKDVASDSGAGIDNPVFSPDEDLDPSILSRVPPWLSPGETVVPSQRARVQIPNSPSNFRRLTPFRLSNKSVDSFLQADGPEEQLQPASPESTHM
How it was run: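 OK cells transiently expressing rat NHE-3 were exposed to 0-30 μM compound in NaCl-HEPES pH 7.4 for 60 min, then washed free of drug before NH4Cl/BCECF-AM loading and acid-loading in Na+-free choline buffer. Na+-dependent pH recovery rates (mean of ≥2 replicates) gave pIC50.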

[2] = Pharmacokinetic evaluation in bile; assay type: in vivo, Sprague-Dawley rats; conditions: bile duct cannulated rats, oral gavage, nominal dose 30 mg/kg, bile collected over 24 h, mean of n=3
Method: Bile duct cannulated (BDC) Sprague-Dawley rats were dosed with test compounds by oral gavage and a single aliquot of bile was collected via cannula over the 24 h following dosing. Bile samples were treated with acetonitrile and precipitated proteins were removed by centrifugation. Some compounds required liquid-liquid extraction using MTBE. After centrifugation, samples were diluted as appropriate in mobile phase and analyzed by LC-MS/MS. The concentrations of compounds in bile were determined by interpolation from a standard calibration curve prepared in rat bile from untreated BDC rats. Accurate recovery of quality control samples was confirmed to accept each analytical run. Concentration in bile is reported in nM and represents the mean result from n=3 rats.

human NHE-3 = molecular target: T2, human NHE-3 (Homo sapiens, UniProt P48764); experiment: Cell-based assay of NHE-3 activity (human NHE3 inhibition assay); conditions: OK cells with human NHE-3 gene, BCECF pH dye, 0-30 μM test compound
T2 construct: expressed in transfected cells; host or cells: Opossum kidney (OK) cells (ATCC), transfected by electroporation
T2 sequence (P48764 26-834): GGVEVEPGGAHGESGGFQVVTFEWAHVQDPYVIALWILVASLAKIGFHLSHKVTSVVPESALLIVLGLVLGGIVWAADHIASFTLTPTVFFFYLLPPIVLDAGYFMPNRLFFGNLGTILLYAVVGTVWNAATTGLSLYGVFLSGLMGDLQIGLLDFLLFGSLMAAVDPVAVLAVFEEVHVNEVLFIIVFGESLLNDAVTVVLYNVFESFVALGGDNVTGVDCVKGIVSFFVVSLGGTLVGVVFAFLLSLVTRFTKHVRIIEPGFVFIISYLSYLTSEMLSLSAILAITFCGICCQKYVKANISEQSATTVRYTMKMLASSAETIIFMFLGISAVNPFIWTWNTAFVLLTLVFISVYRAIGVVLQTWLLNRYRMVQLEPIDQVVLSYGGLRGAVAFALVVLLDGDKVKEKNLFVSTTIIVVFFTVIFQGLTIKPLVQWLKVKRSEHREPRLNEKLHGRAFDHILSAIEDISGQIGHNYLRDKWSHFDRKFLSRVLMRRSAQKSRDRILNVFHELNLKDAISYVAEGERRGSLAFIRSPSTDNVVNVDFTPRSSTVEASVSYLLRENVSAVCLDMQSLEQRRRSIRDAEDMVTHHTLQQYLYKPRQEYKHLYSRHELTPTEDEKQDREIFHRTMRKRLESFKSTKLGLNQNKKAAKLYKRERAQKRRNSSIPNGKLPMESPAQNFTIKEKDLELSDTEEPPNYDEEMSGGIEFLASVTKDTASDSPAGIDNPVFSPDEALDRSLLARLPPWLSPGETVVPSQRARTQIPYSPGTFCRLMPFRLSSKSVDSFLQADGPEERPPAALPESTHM
How it was run: (§1)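 Opossum kidney cells electroporated with rat or human NHE-3, loaded with 5 μM BCECF-AM in NH4Cl-HEPES pH 7.4 for 30 min at RT, then acidified 10 min in Na+-free choline HEPES. Na+-dependent pH recovery rates from BCECF fluorescence, averaged over ≥2 replicates, gave pIC50.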

Rat NHE-3 [3] = molecular target: T1, Rat NHE-3; experiment: Cell-based assay of NHE-3 activity (rat NHE-3 prompt inhibition); conditions: OK cells with rat NHE-3 gene, compound present during pH recovery
How it was run: as §1

Fecal recovery = assay type: in vivo, Sprague Dawley rats; conditions: male, Sprague-Dawley, faeces; rat, 1 mg/kg oral gavage, collection time 48 h
Method: Three male Sprague Dawley rats were administered 1 mg/kg test compound by oral gavage. Feces were collected from study animals from 0-48 or 0-72 hours after dosing, dried by lyophilization, and homogenized. Replicate aliquots of 40-60 mg each were subjected to extraction/protein precipitation with 7:1 acetonitrile:water and centrifuged. Supernatants were diluted 1:10 in 50:50 acetonitrile:water prior to analysis by LC-MS/MS. Compound concentrations, determined by interpolation from a standard calibration curve prepared in blank feces matrix, were converted to the percentage of dosed material recovered by taking into account the total collected fecal matter. The percent recovery for each rat was reported as the mean of the calculations from replicate samples. The overall percent recovery (Fecal Recovery [%]) was reported as the mean percent recovery from three rats. Accurate quality control sample recoveries were confirmed in each run, and extraction efficiency was periodically verified.

Plasma PK = assay type: in vivo, Sprague-Dawley rats; conditions: Sprague-Dawley; rat plasma, oral gavage, nominal dose 30 mg/kg, mean of n=3, sampling 0.5-4 h
Method: Sprague-Dawley rats (n=3) were dosed with test compounds by oral gavage. Blood was collected at 0.5, 1, 2 and 4 h via retro-orbital bleeds and processed to plasma using K2EDTA as an anticoagulant. Plasma samples were treated with acetonitrile containing an internal standard and precipitated proteins were removed by centrifugation. Supernatants were analyzed by LC-MS/MS and compound concentrations were determined by interpolation from a calibration curve prepared in plasma. Accurate recovery of quality control samples were confirmed to accept each analytical run.

| SMILES | IC50 (Rat NHE-3 [1]; read-out: Rat NHE3 pIC50 (persistent) (converted)) [nM] | Concentration in Bile [2] [nM] | IC50 (human NHE-3; read-out: Human NHE3 pIC50 (converted)) [nM] | IC50 (Rat NHE-3 [3]; read-out: Rat NHE3 pIC50 (prompt) (converted)) [nM] | dose excreted (Fecal recovery) [%] | AUC (Plasma PK) [ng·h/mL] | Cmax (Plasma PK) [ng/mL] | Rat NHE3 pIC50 (persistent) (Rat NHE-3 [1]) | Human NHE3 pIC50 (human NHE-3) | Rat NHE3 pIC50 (prompt) (Rat NHE-3 [3]) |
| --- | --- | --- | --- | --- | --- | --- | --- | --- | --- | --- |
| CN1Cc2c(Cl)cc(Cl)cc2[C@H](c2cccc(S(=O)(=O)NCCOCCOCCNC(=O)NCCC(N)(CCNC(=O)NCCOCCOCCNS(=O)(=O)c3cccc([C@@H]4CN(C)Cc5c(Cl)cc(Cl)cc54)c3)CCNC(=O)NCCOCCOCCNS(=O)(=O)c3cccc([C@@H]4CN(C)Cc5c(Cl)cc(Cl)cc54)c3)c2)C1 [Example 46, (S)—N,N′-(14-amino-14-(13-(3-((S)-6,8-dichloro-2-methyl-1,2,3,4-tetrahydroisoquinolin-4-yl)phenylsulfonamido)-4-oxo-8,11-dioxa-3,5-diazatridecyl)-10,18-dioxo-3,6,22,25-tetraoxa-9,11,17,19-tetraazaheptacosane-1,27-diyl)bis(3-((S)-6,8-dichloro-2-methyl-1,2,3,4-tetrahydroisoquinolin-4-yl)benzenesulfonamide)] | < 100 | 3 | < 100 | < 100 | 75.8 | – | – | – | – | – |
| CN1Cc2c(Cl)cc(Cl)cc2[C@H](c2cccc(S(=O)(=O)NCCOCCOCCOCCNC(=O)NCCN(CCNC(=O)NCCOCCOCCOCCNS(=O)(=O)c3cccc([C@@H]4CN(C)Cc5c(Cl)cc(Cl)cc54)c3)CCNC(=O)NCCOCCOCCOCCNS(=O)(=O)c3cccc([C@@H]4CN(C)Cc5c(Cl)cc(Cl)cc54)c3)c2)C1 [Example 52] | – | – | – | – | – | < 19 | < 5 | C (C NHE3 pIC50 > 7) | C (C NHE3 pIC50 > 7) | B (B NHE3 pIC50 5-7) |
